According to article PMC11190268, “Enhancing structural diversity through chemical engineering of Ambrosia tenuifolia extract for novel anti-glioblastoma compounds” (Scientific Reports, 2024):
Read-outs that look alike come from different tables or passages of the source.

Legend:
Assay type in all cases: cell-based, human
[1] = system: T98G cells; assay: MTT cell viability assay in T98G glioblastoma cells; conditions: for IC50: Homo sapiens; for IC50 / percentage of cell viability: T98G cells, MTT; for percentage of cell viability: 40 or 80 μM; for anti-glioblastoma activity (in words): T98G cultures
Method: (§1) T98G cells were isolated from the brain of a glioblastoma multiforme patient (ATCC, cat. No. CRl-1690, RRUD: CVCL-0556, Manassas, VA, USA). HEK 293 cells are derived from human embryonic kidney cells (ATCC Cat# CRL-1573, RRID: CVCL_0045). Both cell lines were grown in Dulbecco’s modified Eagle’s medium (DMEM, Invitrogen) supplemented with 10% fetal serum bovine serum (FBS) at 37 °C according to reference.
(§2) 3 × 10^3 cells were seeded in a 96-well plate and were allowed to attach overnight at 37 °C. T98G cells were treated in duplicate or triplicate with different concentrations of the crude/chemically modified extract or pure compounds. The stock solutions were dissolved in DMSO at the final concentration of 160 mg/ml and 5 or 80 mM for the crude/chemically modified extracts and pure compounds, respectively. After 24 h, 100 μL of DMEM supplemented with 10% of FBS and 10% of 3-(4,5-dimethylthiazol-2-yl)-2,5-diphenyltetrazolium bromide (MTT) reagent (5 mg/mL; Sigma) were added to each well, and plates were further incubated for 2 h at 37 °C as described in references,[36]. Then, 100 μL of DMSO:isopropanol (1:1, v/v) were added to each well followed by incubation for a few minutes at room temperature protected from light. Absorbance was analyzed at 570 nm with a reference at 650 nm in an Epoch Microplate Spectrophotometer. Cells incubated with an equivalent DMSO concentration were considered 100% of viability. The equation “log(inhibitor) vs response—variable slope (four parameters) of the GraphPad Prism software was used to calculate the IC50 (half maximal inhibitory concentration) value.
To evaluate the standard treatment, T98G cultures were treated with temozolomide (5 to 1400 μM). After 72 h, the MTT assay was used to determined cell viability and the IC50 value was calculated as describe above.

[2] = system: HEK 293 cells; assay: MTT cell viability assay in non-tumor HEK 293 cells; conditions: for selectivity index: HEK 293 versus T98G
Method: as §1, §2

[3] = system: T98G cells; assay: Temporal susceptibility: MTT viability of dexamethasone-synchronized T98G cells; conditions: for viability at 13.6 µM: Homo sapiens, 24 h, read-out: cell viability
Method: T98G cells were seeded at the density of 3 × 10^3 in a 96-well plate and incubated overnight at 37 °C. Cultured cells were synchronized with dexamethasone (100 nM, 1 h at 37 °C) according to reference and then treated with (3) (13.6 μM) or DMSO at different times post-synchronization for 24 h. After incubation, cell viability was measured by MTT assay as described above. Cells incubated with DMSO were considered as 100% of viability.

[4] = pure compounds, 24 h, read-out: IC50

C=C1C(=O)OC2C1CCC(C)C1CCC(=O)OC12C (stereo not shown) [PsiC, psilostachyin C] gave an IC50 [1, 4] of 14.2 µM.
In the case of C=C1C(=O)OC2C(=C)C(CCC(=O)OC)C(C)CCC12 (stereo not shown) [compound 5], the “percentage of cell viability” value ([1]; 24 h) is reported as “higher than 50%” and the “anti-glioblastoma activity (in words)” value [1] is reported as “weak anti-glioblastoma activity”.
CC1=C(/C=C/C(=O)O)[C@]2(C)CC[C@@H](C=C2C(=O)O)C1 [compound 1, (1R,5S)-4-((E)-2-carboxyvinyl)-3,5-dimethylbicyclo[3.2.2]nona-3,6-diene-6-carboxylic acid] was tested, and the “percentage of cell viability” value ([1]; 24 h) was “higher than 50%” and the “anti-glioblastoma activity (in words)” value [1] was “weak anti-glioblastoma activity”.
C=C1C(=O)O[C@H]2C(=C)[C@]3(CCC(=O)O3)[C@@H](C)CC[C@@H]12 [compound 4, (3aS,6S,7S,8aR)-6-methyl-3,8-dimethyleneoctahydro-5'H-spiro[cyclohepta[b]furan-7,2'-furan]-2,5'(3H)-dione] was tested, and the IC50 ([1]; 24 h, 10 to 160 µg/mL tested, read-out: concentration needed to reduce 50% of cell viability) was > 40 mg/L and the “anti-glioblastoma activity (in words)” value [1] was “less active”.
For Cn1nnc2c(C(N)=O)ncn2c1=O [Temozolomide, reference compound], the IC50 ([1]; standard treatment, 72 h, read-out: IC50) was 844 µM.
With C=C1C(=O)O[C@H]2C(=C)[C@@]3(CCC(=O)O3)[C@@H](C)CC[C@@H]12 [compound 3, (3aS,6S,7R,8aR)-6-methyl-3,8-dimethyleneoctahydro-5'H-spiro[cyclohepta[b]furan-7,2'-furan]-2,5'(3H)-dione] the IC50 [1, 4] was 13.6 µM, the “anti-glioblastoma activity (in words)” value [1] was “most active derivative of the series” and the selectivity index [2] was “good selectivity index”. For the same compound, the IC50 ([2]; Homo sapiens, HEK293, 24 h, HEK 293 cells, 24 h, MTT) was ~39 µM, the viability at 13.6 µM ([3]; T98G cells treated at 18 and 24 h post synchronization) was 45 to 50% and the viability at 13.6 µM ([3]; non-synchronized T98G cells) was ~75%. For the same compound, the “effect of time post synchronization on cell viability” value ([3]; T98G cells, Kruskal Wallis test) was “significant effect of time on cell viability”.
With C=C1C(=O)O[C@@H]2[C@H]1CC[C@H](C)[C@]1(CCC(=O)O1)[C@@]2(C)O [PsiA, psilostachyin A] the IC50 [1, 4] was 17.4 µM and the selectivity index [2] was “Only 3 showed a good selectivity index”.
In the case of COC(=O)/C=C/C1=C(C)C[C@@H]2C=C(C(=O)OC)[C@@]1(C)CC2 [compound 2, Methyl (1R,5S)-4-((E)-3-methoxy-3-oxoprop-1-en-1-yl)-3,5-dimethylbicyclo[3.2.2]nona-3,6-diene-6-carboxylate], the “percentage of cell viability” value ([1]; 24 h) is reported as “higher than 50%” and the “anti-glioblastoma activity (in words)” value [1] is reported as “weak anti-glioblastoma activity”.
For “Methyl 3-((3aS,6S,7S,8aR)-6-methyl-3,8-dimethylene-2-oxooctahydro-2H-cyclohepta[b]furan-7-yl)propanoate [compound 11]”, the “percentage of cell viability” value ([1]; 24 h) was “higher than 50%” and the “anti-glioblastoma activity (in words)” value [1] was “weak anti-glioblastoma activity”.
C=C1C(=O)OC2C1CCC(C)=C1CCC(=O)OC12C (stereo not shown) [PsiB, psilostachyin B] showed an IC50 [1, 4] of 13.9 µM.
